# Data: PubChem BioAssay (NCI)
# Where “and” joins values, the source holds several entries; their conditions need not be identical. Identical values can stand only once.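 Compound exposure: 48 hours, 5 concentrations, 96-well plates. GI50 is the concentration that inhibits growth by half. TGI is the concentration that stops growth completely.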
# Assays:
# Test in all cases: inhibition of tumour cell growth, NCI panel, 48 h
# 786-0 renal = test system: 786-0 renal
# HCT-15 colon = test system: HCT-15 colon
# HS 578T breast = test system: HS 578T breast
# HT29 colon = test system: HT29 colon
# KM12 colon = test system: KM12 colon
# LOX IMVI melanoma = test system: LOX IMVI melanoma
# NCI-H522 lung = test system: NCI-H522 lung
# OVCAR-4 ovarian = test system: OVCAR-4 ovarian
# RXF 393 renal = test system: RXF 393 renal
# T-47D breast = test system: T-47D breast
Compound,GI50 (786-0 renal),TGI (786-0 renal),GI50 (HCT-15 colon),TGI (HCT-15 colon),GI50 (HS 578T breast),TGI (HS 578T breast),GI50 (HT29 colon),TGI (HT29 colon),GI50 (KM12 colon),TGI (KM12 colon),GI50 (LOX IMVI melanoma),TGI (LOX IMVI melanoma),GI50 (NCI-H522 lung),TGI (NCI-H522 lung),GI50 (OVCAR-4 ovarian),TGI (OVCAR-4 ovarian),GI50 (RXF 393 renal),TGI (RXF 393 renal),GI50 (T-47D breast),TGI (T-47D breast)
CN1CCCNc2c(c(=O)c2=O)NCCCN(C)CCCNc2c(c(=O)c2=O)NCCCN(C)CCCNc2c(c(=O)c2=O)NCCCN(C)CCCNc2c(c(=O)c2=O)NCCCN(C)CCCNc2c(c(=O)c2=O)NCCCN(C)CCCNc2c(c(=O)c2=O)NCCCN(C)CCCNc2c(c(=O)c2=O)NCCC1,4.29 µM,15.1 µM,5.19 µM,22.5 µM,9.15 µM,31.2 µM,9.87 µM,> 50 µM,3.63 µM,18 µM,10.5 µM,> 50 µM,6.91 µM,> 50 µM,2.98 µM,16.7 µM,2.54 µM,12.7 µM,2.06 µM,7.74 µM
COc1ccccc1-n1c(-c2cc(O)ccc2C)cn2c3c(=O)[nH]c(=O)n(C)c3nc12,6.24 µM,> 100 µM,54.7 µM,> 100 µM,0.567 µM,5.75 µM,1.62 µM,8.12 µM,> 100 µM,> 100 µM,2.28 µM,16 µM,1.79 µM,> 100 µM,> 100 µM,> 100 µM,0.872 µM,4.11 µM,42.4 µM,> 100 µM
COc1cc(NCCCCN=C(N)NC(N)=NC(C)C)c2ncccc2c1,31 µM,> 100 µM,> 100 µM,> 100 µM,5.51 µM,27.1 µM,7.49 µM,32.2 µM,1.48 µM,11.8 µM,3.68 µM,15.5 µM,0.929 µM,3.93 µM,0.0797 µM,2.15 µM,> 47 µM,> 100 µM,0.739 µM,8.2 µM
CC(C)(C)[Si](C)(C)OCC1OC(n2cnc3c(NC(=O)c4ccccc4)ncnc32)CC1O (centres undefined),–,38.6 µM,–,> 100 µM,–,45.8 µM,–,> 100 µM,–,87.4 µM,–,33.9 µM,–,37.7 µM,–,84.6 µM,–,40.4 µM,–,99.5 µM
COc1cc2c(cc1OCCOS(C)(=O)=O)N=C[C@@H]1CCCN1C2=O,17 µM,30.7 µM,16.5 µM,31.1 µM,–,81 µM,–,> 100 µM,–,> 100 µM,15.7 µM,29.5 µM,10.9 µM,30.1 µM,–,58.5 µM,–,> 100 µM,–,> 100 µM
NC(=O)C1=NNc2ccccc2C(=O)N1c1ccccc1,–,> 100 µM,–,> 100 µM,–,> 100 µM,–,> 100 µM,–,> 100 µM,–,> 100 µM,–,> 100 µM,–,> 100 µM,–,> 100 µM,–,> 100 µM
CC(=O)OC1CC(n2cc(F)c(=O)[nH]c2=O)OC1CO (centres undefined),–,> 62.5 µM,–,> 100 µM,–,> 100 µM,–,> 100 µM,–,> 100 µM,–,> 63.8 µM,–,23.9 µM,–,> 100 µM,–,> 100 µM,–,> 100 µM
CCCCCC(O)C1C(=O)OC(C)C(O)/C=C/C=C/C=C/C=C\C=C(\C)C(O)CC(O)CC(O)CC(O)CC(O)CC(O)CC1O (centres undefined),> 100 µM,> 100 µM,> 100 µM,> 100 µM,> 100 µM,> 100 µM,> 100 µM,> 100 µM,> 100 µM,> 100 µM,> 100 µM,> 100 µM,> 100 µM,> 100 µM,> 100 µM,26.3 µM and > 100 µM,> 100 µM,> 100 µM,> 100 µM,> 100 µM
C=C(C)[C@@H]1CC[C@]2(C)[C@H](C(=O)C=C3[C@@H]4C[C@](C)(C(=O)N5CCN(C)CC5)CC[C@]4(C)CC[C@]32C)[C@@]1(C)CCC#N,7.03 µM,13.7 µM,4.2 µM,10.9 µM,7.99 µM,20.9 µM,2.38 µM,8.49 µM,6.43 µM,13.4 µM,6.24 µM,12.6 µM,7.21 µM,15.3 µM,6.21 µM,13.6 µM,5.32 µM,11.4 µM,4.42 µM,13.4 µM
Cc1nc2sccn2c(=O)c1CCN1CCC(=C(c2ccc(F)cc2)c2ccc(F)cc2)CC1,12 µM,27.8 µM,4.53 µM,17.5 µM,16.3 µM,43.3 µM,5.37 µM,19 µM,12.2 µM,27.4 µM,8.18 µM,22.9 µM,11.1 µM,25.7 µM,12.6 µM,27.9 µM,11.3 µM,26.9 µM,11.7 µM,28.9 µM
CS(=O)CCCCCN=C=S (centres undefined),5.68 µM,19.5 µM,2.9 µM,12.1 µM,6.38 µM,36 µM,3.47 µM,11.1 µM,3.33 µM,13 µM,0.782 µM,10.3 µM,1.99 µM,5.87 µM,5.11 µM,22.8 µM,3.37 µM,9.45 µM,2.32 µM,7.56 µM
COc1ccc(NC(=O)n2nc(N)c3ccccc32)cc1OC,> 100 µM,> 100 µM,44.1 µM,> 100 µM,43.3 µM,> 100 µM,48.2 µM,> 100 µM,67.9 µM,> 100 µM,49.3 µM,> 100 µM,34.9 µM,> 100 µM,63.2 µM,> 100 µM,95.2 µM,> 100 µM,33 µM,> 100 µM
O=[N+]([O-])c1ccc(-c2nc(-c3ccccc3)c(-c3ccccc3)n2-c2ccccc2)cc1,4.82 µM,22.3 µM,2.82 µM,8.76 µM,2.74 µM,14.4 µM,1.75 µM,3.37 µM,2.3 µM,5.6 µM,2.4 µM,6.86 µM,3.05 µM,> 28.4 µM,2.94 µM,14.9 µM,3.08 µM,9.78 µM,2.19 µM,7.29 µM
CCOC(=O)c1sc2nc3sc(N=Nc4ccc(Cl)cc4)c(O)n3c(=S)c2c1C,32.4 µM,> 100 µM,18.3 µM,49.3 µM,23.8 µM,68.4 µM,36.9 µM,> 100 µM,31.2 µM,> 100 µM,26.1 µM,87.1 µM,38.8 µM,> 100 µM,47.4 µM,> 100 µM,20.6 µM,90.4 µM,0.609 µM,21.9 µM
CCOc1ccc([C@@H]2[C@@H](Oc3ccccc3)C(=O)N2c2cc(OC)c(OC)c(OC)c2)cc1,0.0896 µM,> 100 µM,0.186 µM,> 100 µM,0.0583 µM,> 100 µM,0.0491 µM,0.522 µM,0.0525 µM,> 100 µM,0.0642 µM,> 100 µM,0.0323 µM,0.371 µM,0.928 µM,> 100 µM,0.0446 µM,> 100 µM,9.48 µM,> 100 µM
CCC(C)n1cc(C)c2c(C(=O)NCc3c(C)cc(C)[nH]c3=O)cc(Br)cc21 (centres undefined),> 100 µM,> 100 µM,29 µM,> 100 µM,35 µM,> 100 µM,41.5 µM,> 100 µM,38.1 µM,> 100 µM,32.8 µM,> 100 µM,38 µM,> 100 µM,37.2 µM,> 100 µM,27.6 µM,> 100 µM,20 µM,73.3 µM
Cc1cc2cc3cc(C)c(N(C)C)cc3nc2cc1N(C)C,3.87 µM,16.3 µM,12.1 µM,> 100 µM,1.89 µM,18.1 µM,1.55 µM,23.8 µM,1.66 µM,6.22 µM,3.33 µM,78 µM,3.76 µM,30 µM,2.25 µM,19.5 µM,7.14 µM,31.2 µM,1.6 µM,> 100 µM
NC(N)=NS(=O)(=O)c1ccc(NCc2c3ccccc3nc3ccccc23)cc1,–,9.65 µM,–,> 100 µM,–,28.6 µM,–,> 100 µM,–,70.1 µM,–,58 µM,–,26.9 µM,–,> 100 µM,–,42.1 µM,–,23.5 µM
